Laboratory results taken from patent US20120094998A1, “Oligomer-Protein Tyrosine Kinase Inhibitor Conjugates” (Nektar Therapeutics, priority 2009, published 2012).
Where two headings read alike, the source gives them in different places.

What was measured:
INSR = INSR (Homo sapiens, UniProt P06213); test: Activity against various protein tyrosine kinases: INSR; type: biochemical; details: for inhibition at 0.01 µM: 10 nM
Protocol: (§1) Using techniques know those of ordinary skill in the art, compounds were tested for activity against various protein tyrosine kinases.

SRC = SRC (Homo sapiens, UniProt P12931); test: Activity against various protein tyrosine kinases: SRC; type: biochemical; details: for inhibition at 0.01 µM: 10 nM
Protocol: as §1

AurC = molecular target: T1, AurC (Homo sapiens, UniProt Q9UQB9); test: Activity against various protein tyrosine kinases: AurC; type: biochemical; details: for inhibition at 0.01 µM: 10 nM
T1 sequence (Q9UQB9 1-309): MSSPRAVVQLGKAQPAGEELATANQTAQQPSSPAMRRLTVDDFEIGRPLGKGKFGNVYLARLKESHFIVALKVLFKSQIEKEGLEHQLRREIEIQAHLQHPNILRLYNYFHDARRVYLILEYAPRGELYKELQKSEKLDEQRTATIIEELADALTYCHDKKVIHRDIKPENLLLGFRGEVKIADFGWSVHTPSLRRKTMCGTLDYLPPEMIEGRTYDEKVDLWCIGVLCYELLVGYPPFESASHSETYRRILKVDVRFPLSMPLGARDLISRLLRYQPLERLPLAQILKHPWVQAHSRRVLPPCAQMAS
Protocol: as §1

IKK-beta = molecular target: T2, IKK-beta (Homo sapiens, UniProt O14920); test: Activity against various protein tyrosine kinases: IKK-beta; type: biochemical; details: for inhibition at 0.01 µM: 10 nM
T2 sequence (O14920 1-756): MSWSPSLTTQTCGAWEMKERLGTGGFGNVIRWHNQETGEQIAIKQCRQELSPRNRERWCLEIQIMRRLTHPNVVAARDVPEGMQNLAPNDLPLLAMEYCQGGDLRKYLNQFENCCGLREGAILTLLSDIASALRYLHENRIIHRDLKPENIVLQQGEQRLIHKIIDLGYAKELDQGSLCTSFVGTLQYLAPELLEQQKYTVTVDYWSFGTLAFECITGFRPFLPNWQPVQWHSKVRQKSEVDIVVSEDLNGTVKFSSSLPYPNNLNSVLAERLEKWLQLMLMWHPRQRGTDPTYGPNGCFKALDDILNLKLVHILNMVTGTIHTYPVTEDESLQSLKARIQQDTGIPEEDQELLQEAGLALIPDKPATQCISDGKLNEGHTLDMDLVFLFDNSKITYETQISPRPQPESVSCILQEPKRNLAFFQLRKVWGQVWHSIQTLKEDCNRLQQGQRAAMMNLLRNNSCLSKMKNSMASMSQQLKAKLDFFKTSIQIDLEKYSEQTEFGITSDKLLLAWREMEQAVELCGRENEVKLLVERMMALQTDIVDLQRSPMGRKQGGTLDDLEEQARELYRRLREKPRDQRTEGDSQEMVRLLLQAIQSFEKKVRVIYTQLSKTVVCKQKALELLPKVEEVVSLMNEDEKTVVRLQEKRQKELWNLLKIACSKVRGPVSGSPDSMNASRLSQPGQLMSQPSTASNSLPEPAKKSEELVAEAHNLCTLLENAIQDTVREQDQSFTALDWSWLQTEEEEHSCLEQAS
Protocol: as §1

LCK = LCK (Homo sapiens, UniProt P06239); test: Activity against various protein tyrosine kinases: LCK; type: biochemical; details: for inhibition at 0.01 µM: 10 nM
Protocol: as §1

RSK1 = RSK1 (Homo sapiens, UniProt Q15418); test: Activity against various protein tyrosine kinases: RSK1; type: biochemical; details: for inhibition at 0.01 µM: 10 nM
Protocol: as §1

MAPKAPK3 = MAPKAPK3 (Homo sapiens, UniProt Q16644); test: Activity against various protein tyrosine kinases: MAPKAPK3; type: biochemical; details: for inhibition at 0.01 µM: 10 nM
Protocol: as §1

PKD2 = molecular target: T3, PKD2 (Homo sapiens, UniProt Q9BZL6); test: Activity against various protein tyrosine kinases: PKD2; type: biochemical; details: for inhibition at 0.01 µM: 10 nM
T3 sequence (Q9BZL6 1-878): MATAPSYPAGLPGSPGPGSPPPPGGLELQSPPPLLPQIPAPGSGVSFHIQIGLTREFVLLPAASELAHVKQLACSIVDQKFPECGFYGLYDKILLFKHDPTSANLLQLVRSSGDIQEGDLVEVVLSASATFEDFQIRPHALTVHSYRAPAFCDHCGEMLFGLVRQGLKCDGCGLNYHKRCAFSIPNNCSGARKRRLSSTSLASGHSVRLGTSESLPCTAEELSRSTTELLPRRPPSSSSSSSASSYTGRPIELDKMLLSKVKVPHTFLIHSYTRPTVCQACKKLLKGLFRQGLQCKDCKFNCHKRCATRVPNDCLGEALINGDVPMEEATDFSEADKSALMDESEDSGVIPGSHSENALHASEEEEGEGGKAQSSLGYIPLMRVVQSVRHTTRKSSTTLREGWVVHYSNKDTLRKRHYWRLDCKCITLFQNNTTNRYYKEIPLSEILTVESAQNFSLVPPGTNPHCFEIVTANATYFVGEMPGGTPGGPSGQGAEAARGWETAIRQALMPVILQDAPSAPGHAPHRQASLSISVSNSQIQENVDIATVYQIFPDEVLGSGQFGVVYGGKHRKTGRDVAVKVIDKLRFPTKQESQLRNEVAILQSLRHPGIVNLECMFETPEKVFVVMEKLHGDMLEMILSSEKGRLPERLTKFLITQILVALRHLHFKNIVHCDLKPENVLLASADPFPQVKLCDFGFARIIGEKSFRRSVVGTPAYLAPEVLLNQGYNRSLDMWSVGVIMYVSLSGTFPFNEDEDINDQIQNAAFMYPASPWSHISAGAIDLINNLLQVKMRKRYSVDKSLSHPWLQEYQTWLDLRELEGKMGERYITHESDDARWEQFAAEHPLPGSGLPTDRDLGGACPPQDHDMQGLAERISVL
Protocol: as §1

ABL (Q252H) = ABL (Q252H) (Homo sapiens, UniProt P00519, Q252H); test: Activity against various protein tyrosine kinases: ABL (Q252H); type: biochemical; details: for inhibition at 0.01 µM: read-out: % Inhibition at 10 nM; for inhibition at 1 µM: read-out: % Inhibition at 1 μM
Protocol: as §1

ABL = ABL (Homo sapiens, UniProt P00519)

RSK1, sequence (Q15418 whole entry, species assumed): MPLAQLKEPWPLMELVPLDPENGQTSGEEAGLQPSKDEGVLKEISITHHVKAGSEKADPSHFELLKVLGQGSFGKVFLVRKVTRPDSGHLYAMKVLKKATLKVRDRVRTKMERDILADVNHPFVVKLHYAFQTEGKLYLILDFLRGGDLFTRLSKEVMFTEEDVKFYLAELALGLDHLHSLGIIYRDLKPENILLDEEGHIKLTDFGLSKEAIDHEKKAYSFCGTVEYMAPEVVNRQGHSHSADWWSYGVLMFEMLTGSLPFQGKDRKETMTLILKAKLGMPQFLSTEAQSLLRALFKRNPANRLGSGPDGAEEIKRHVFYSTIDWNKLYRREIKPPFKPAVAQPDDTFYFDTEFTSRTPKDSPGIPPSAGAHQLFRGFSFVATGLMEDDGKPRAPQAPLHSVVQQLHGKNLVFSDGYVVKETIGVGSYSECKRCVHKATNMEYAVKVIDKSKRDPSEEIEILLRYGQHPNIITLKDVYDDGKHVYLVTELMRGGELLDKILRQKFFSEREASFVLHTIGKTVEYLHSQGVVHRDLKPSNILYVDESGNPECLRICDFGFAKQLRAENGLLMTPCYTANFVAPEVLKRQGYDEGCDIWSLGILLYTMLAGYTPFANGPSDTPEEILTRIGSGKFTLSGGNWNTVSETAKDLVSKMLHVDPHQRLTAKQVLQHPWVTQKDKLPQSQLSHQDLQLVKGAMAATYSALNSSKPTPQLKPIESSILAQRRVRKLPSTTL
LCK, sequence (P06239 whole entry, species assumed): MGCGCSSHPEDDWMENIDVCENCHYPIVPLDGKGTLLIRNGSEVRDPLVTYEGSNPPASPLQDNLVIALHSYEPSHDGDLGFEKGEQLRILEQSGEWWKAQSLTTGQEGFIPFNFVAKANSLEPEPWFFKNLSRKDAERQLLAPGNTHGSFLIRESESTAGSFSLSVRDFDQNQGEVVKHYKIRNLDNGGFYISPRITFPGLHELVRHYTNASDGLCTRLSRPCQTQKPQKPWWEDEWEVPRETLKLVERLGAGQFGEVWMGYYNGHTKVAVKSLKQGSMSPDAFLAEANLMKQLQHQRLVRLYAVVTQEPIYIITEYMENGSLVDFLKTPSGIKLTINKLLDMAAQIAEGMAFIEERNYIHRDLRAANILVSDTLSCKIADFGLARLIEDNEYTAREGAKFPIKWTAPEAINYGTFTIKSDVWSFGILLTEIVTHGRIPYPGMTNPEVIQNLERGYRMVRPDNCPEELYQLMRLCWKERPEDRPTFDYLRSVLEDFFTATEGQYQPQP
SRC, sequence (P12931 whole entry, species assumed): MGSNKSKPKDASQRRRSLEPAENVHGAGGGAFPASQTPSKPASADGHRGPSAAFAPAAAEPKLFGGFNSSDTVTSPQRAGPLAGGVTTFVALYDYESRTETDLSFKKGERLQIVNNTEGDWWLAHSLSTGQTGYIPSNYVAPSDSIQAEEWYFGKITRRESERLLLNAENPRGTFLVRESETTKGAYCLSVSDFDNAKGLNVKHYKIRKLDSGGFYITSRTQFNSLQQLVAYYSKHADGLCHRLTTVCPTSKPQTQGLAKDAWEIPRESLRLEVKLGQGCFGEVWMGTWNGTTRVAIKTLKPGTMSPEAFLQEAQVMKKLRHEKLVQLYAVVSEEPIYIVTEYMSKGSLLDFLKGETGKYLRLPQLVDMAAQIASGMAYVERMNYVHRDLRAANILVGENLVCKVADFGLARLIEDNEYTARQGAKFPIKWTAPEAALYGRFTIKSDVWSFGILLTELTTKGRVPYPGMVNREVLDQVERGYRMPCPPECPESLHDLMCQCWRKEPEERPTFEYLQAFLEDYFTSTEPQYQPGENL
INSR, sequence (P06213 28-1382, species assumed): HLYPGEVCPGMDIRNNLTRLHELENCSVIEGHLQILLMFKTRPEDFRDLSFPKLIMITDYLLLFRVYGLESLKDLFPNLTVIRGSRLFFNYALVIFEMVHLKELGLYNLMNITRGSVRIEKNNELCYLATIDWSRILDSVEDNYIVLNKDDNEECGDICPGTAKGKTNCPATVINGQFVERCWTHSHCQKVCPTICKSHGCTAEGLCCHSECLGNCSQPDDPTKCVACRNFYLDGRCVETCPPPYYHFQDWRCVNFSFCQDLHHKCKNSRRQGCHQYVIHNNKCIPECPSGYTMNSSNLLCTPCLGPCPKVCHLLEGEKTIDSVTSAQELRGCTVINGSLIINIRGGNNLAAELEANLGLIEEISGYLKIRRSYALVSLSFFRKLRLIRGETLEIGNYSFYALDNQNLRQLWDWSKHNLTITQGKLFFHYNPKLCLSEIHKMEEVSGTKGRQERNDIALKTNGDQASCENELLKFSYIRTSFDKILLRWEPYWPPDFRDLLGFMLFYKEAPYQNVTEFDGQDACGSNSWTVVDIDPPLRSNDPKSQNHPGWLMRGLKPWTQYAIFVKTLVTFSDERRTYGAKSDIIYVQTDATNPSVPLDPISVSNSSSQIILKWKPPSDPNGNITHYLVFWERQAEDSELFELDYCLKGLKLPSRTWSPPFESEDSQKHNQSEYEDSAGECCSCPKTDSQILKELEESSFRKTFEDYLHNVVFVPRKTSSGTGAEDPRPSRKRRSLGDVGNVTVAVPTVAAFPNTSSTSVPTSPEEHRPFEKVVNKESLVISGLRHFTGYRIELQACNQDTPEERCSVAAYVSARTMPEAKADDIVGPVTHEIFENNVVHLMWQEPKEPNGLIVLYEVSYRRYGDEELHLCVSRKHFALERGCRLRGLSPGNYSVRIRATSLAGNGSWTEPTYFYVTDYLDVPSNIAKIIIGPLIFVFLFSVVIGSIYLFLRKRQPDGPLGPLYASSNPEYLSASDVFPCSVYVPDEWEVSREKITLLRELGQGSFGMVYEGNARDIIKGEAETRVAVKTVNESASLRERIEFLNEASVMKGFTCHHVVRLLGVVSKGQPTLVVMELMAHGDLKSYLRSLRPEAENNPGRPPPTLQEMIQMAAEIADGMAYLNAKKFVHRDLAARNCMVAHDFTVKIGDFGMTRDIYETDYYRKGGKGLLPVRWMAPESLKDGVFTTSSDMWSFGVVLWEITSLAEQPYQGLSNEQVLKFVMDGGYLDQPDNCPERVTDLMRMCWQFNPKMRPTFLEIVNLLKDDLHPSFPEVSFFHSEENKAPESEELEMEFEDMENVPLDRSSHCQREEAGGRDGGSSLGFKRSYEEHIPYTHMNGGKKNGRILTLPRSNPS
MAPKAPK3, sequence (Q16644 whole entry, species assumed): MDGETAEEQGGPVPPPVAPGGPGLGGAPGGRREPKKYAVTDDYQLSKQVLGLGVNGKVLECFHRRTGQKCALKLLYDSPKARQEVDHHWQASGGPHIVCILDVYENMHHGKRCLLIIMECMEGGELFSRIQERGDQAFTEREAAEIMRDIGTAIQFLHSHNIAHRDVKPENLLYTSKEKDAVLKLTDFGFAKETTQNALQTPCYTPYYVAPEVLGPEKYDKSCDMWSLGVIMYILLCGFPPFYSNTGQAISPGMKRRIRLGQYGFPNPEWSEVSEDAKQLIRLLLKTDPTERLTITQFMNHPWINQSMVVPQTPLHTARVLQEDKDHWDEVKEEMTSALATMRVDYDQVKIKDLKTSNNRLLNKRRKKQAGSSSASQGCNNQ

Work on `COCCOCCOCCOCCOCCOCCOCCNC(=O)OCCN1CCN(c2cc(Nc3ncc(C(=O)Nc4c(C)cccc4Cl)s3)nc(C)n2)CC1` [mPEG7-NHCOO-Dasatinib] yielded an inhibition at 0.01 µM (INSR) of 2%, an inhibition at 1 µM (INSR) of 3% and an inhibition at 0.01 µM (SRC) of 98%. For the same compound, the inhibition at 1 µM (SRC) was 98%, the inhibition at 0.01 µM (AurC) was 0% and the inhibition at 1 µM (AurC) was 2%. The inhibition at 0.01 µM (IKK-beta) was 2%, the inhibition at 1 µM (IKK-beta) was 2% and the inhibition at 0.01 µM (LCK) was 98%. For the same compound, the inhibition at 1 µM (LCK) was 98%, the inhibition at 0.01 µM (RSK1) was 0% and the inhibition at 1 µM (RSK1) was 4%. It also gave an inhibition at 0.01 µM (MAPKAPK3) of 1%, an inhibition at 1 µM (MAPKAPK3) of 0% and an inhibition at 0.01 µM (PKD2) of 3%. The inhibition at 1 µM (PKD2) was 4%, the inhibition at 0.01 µM (ABL (Q252H); ABL (Q252H), 10 nM) was 99% and the inhibition at 1 µM (ABL (Q252H); ABL (Q252H), 1 μM) was 99%.
With `COCCOCCOCCNC(=O)OCCN1CCN(c2cc(Nc3ncc(C(=O)Nc4c(C)cccc4Cl)s3)nc(C)n2)CC1` [mPEG3-NHCOO-Dasatinib] the inhibition at 0.01 µM (INSR) was 1%, the inhibition at 1 µM (INSR) was -1% and the inhibition at 0.01 µM (SRC) was 99%. The inhibition at 1 µM (SRC) was 99%, the inhibition at 0.01 µM (AurC) was -1% and the inhibition at 1 µM (AurC) was 0%. For the same compound, the inhibition at 0.01 µM (IKK-beta) was 0%, the inhibition at 1 µM (IKK-beta) was 1% and the inhibition at 0.01 µM (LCK) was 97%. It also gave an inhibition at 1 µM (LCK) of 98%, an inhibition at 0.01 µM (RSK1) of 2% and an inhibition at 1 µM (RSK1) of 0%. For the same compound, the inhibition at 0.01 µM (MAPKAPK3) was 5%, the inhibition at 1 µM (MAPKAPK3) was 3% and the “ABL AVG % Activity at 1.0E−09” value (ABL) was 4%. For the same compound, the “ABL AVG % Activity at 1.0E−10” value (ABL) was 81%, the “ABL AVG % Activity at 1.0E−11” value (ABL) was 99% and the “ABL AVG % Activity at 3.0E−09” value (ABL) was 0%. For the same compound, the “ABL AVG % Activity at 3.0E−10” value (ABL) was 47%, the “ABL AVG % Activity at 3.0E−11” value (ABL) was 95% and the inhibition at 0.01 µM (PKD2) was 12%. It also gave an inhibition at 1 µM (PKD2) of -5%, an inhibition at 0.01 µM (ABL (Q252H)) of 98% and an inhibition at 1 µM (ABL (Q252H)) of 99%.
